Test results taken from patent US10577363B2, “Substituted piperidine compounds” (EPIZYME, INC., priority 2014, dated 2020).
Structures can show the parent of a compound that is named as a salt. Each block holds one compound with its values, some of them ahead of it.

Tests used:
SMYD3 [1] = biological target: T1, SMYD3 (Homo sapiens (Human), UniProt Q9H7B4); test: SMYD3 biochemical assay (SPA, 3H-SAM methylation of MEKK2 protein substrate)
How it was run: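 Full-length native human SMYD3 (E. coli-expressed, tags removed) preincubated with compounds 30 min at room temperature, then reaction started with 3H-SAM and GST-tagged MEKK2 protein in 25 mM Tris-Cl pH 8.0, 1 mM TCEP, 0.005% BSG, 0.005% Tween 20. Quenched with unlabelled SAM (100 uM final); 3H-MEKK2 counted by SPA.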

SMYD3 [2] = biological target: T1, SMYD3; test: SMYD3 cell assay (Trimethyl-MEKK2 In-Cell Western in 293T/17 cells); assay type: cell-based
How it was run: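 In-Cell Western ratio of trimethyl-Lys260 MEKK2 to anti-flag signal; percent inhibition from DMSO and maximum-inhibition controls, IC50 by non-linear regression, triplicates.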

[3] = Table 1A, IC50 values are an average of n = 1 to n = 50, read-out: SMYD3 Biochem IC50
[4] = Table 1A, IC50 values are an average of n = 1 to n = 50, read-out: SMYD3 Cell IC50
[5] = read-out: SMYD3 Biochem IC50 (μM)*
[6] = 293T/17 cells, read-out: SMYD3 Cell IC50 (μM)*
[7] = Table 2A, read-out: SMYD3 Biochem IC50
[8] = Table 2A, read-out: SMYD3 Cell IC50
[9] = average of n = 1 to n = 50, read-out: SMYD3 Biochem IC50
[10] = average of n = 1 to n = 50, read-out: SMYD3 Cell IC50

T1 sequence (Q9H7B4 whole entry): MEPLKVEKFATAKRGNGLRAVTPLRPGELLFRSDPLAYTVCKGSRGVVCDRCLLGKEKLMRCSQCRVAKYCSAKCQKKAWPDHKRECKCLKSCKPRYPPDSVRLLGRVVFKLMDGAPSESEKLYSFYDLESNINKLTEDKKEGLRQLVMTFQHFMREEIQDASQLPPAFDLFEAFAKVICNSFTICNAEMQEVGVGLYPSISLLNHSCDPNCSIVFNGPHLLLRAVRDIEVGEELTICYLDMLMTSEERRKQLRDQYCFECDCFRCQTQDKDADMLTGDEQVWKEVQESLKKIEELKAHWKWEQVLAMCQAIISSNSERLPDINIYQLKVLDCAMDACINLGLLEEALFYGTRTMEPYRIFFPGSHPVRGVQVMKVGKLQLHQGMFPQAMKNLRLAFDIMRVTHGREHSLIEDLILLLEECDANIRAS

SMILES: O=C(Nc1ccc(S(=O)(=O)N2[C@@H]3CC[C@H]2C[C@H](NC(=O)c2cc(C4CC4)on2)C3)cc1)c1ccncc1 [compound 489, 5-cyclopropyl-N-((1R,3s,5S)-8-((4-(isonicotinamido)phenyl)sulfonyl)-8-azabicyclo[3.2.1]octan-3-yl)isoxazole-3-carboxamide]
IC50 (SMYD3 [1]; [3]): 5.42 µM
IC50 (SMYD3 [2]; [4]): 6.66 µM

SMILES: O=C(N[C@H]1C[C@H]2CC[C@@H](C1)N2S(=O)(=O)c1ccc2[nH]c(=O)oc2c1)c1cc(C2CC2)on1 [compound 405, 5-cyclopropyl-N-((1R,3r,5S)-8-((2-oxo-2,3-dihydrobenzo[d]oxazol-6-yl)sulfonyl)-8-azabicyclo[3.2.1]octan-3-yl)isoxazole-3-carboxamide]
IC50 (SMYD3 [1]; [5]): 9.39 µM
IC50 (SMYD3 [2]; [6]): > 10 µM

IC50 (SMYD3 [1]; [7]): 0.0126 µM
IC50 (SMYD3 [2]; [8]): 0.0778 µM
SMILES: C[C@@H]1CN(S(=O)(=O)N2CCNCC2)[C@H](C)C[C@@H]1NC(=O)c1cc(C2CC2)on1 [compound 595, 5-cyclopropyl-N-((2R,4S,5R)-2,5-dimethyl-1-(piperazin-1-ylsulfonyl)piperidin-4-yl)isoxazole-3-carboxamide]

SMILES: CC1CC(N)CCN1S(=O)(=O)N1[C@@H]2CC[C@H]1C[C@@H](NC(=O)c1cc(C3CC3)on1)C2 (stereo partly drawn) [compound 803, N-((1R,3r,5S)-8-((4-amino-2-methylpiperidin-1-yl)sulfonyl)-8-azabicyclo[3.2.1]octan-3-yl)-5-cyclopropylisoxazole-3-carboxamide]
IC50 (SMYD3 [1]; read-out: SMYD3 Biochem IC50*): 0.00231 µM
IC50 (SMYD3 [2]; read-out: SMYD3 Cell IC50*): 0.059 µM

SMILES: CCCc1cc(C(=O)N[C@H]2C[C@H]3CC[C@@H](C2)N3S(=O)(=O)CC2CCN(C)CC2)no1 [compound 965, N-((1R,3r,5S)-8-(((1-methylpiperidin-4-yl)methyl)sulfonyl)-8-azabicyclo[3.2.1]octan-3-yl)-5-propylisoxazole-3-carboxamide]
IC50 (SMYD3 [1]; read-out: SMYD3 Biochem IC50*): 0.0853 µM
IC50 (SMYD3 [2]; read-out: SMYD3 Cell IC50*): 1.31 µM

IC50 (SMYD3 [1]; [5]): 1 µM
IC50 (SMYD3 [2]; [6]): 4.62 µM
SMILES: O=C(N[C@H]1CCN(S(=O)(=O)CCN2CCCC2)[C@@H](Cc2ccccc2)C1)c1cc(C2CC2)on1 [compound 437, N-((2S,4S)-2-benzyl-1-((2-(pyrrolidin-1-yl)ethyl)sulfonyl)piperidin-4-yl)-5-cyclopropylisoxazole-3-carboxamide]

SMILES: O=C(N[C@H]1C[C@H]2CC[C@@H](C1)N2S(=O)(=O)N1CC2CCC(C1)N2CCC(F)(F)F)c1cc(C2CC2)on1 [compound 990, 5-cyclopropyl-N-((1R,3r,5S)-8-((8-(3,3,3-trifluoropropyl)-3,8-diazabicyclo[3.2.1]octan-3-yl)sulfonyl)-8-azabicyclo[3.2.1]octan-3-yl)isoxazole-3-carboxamide]
IC50 (SMYD3 [1]; IC50 values are an average of n = 1 to n = 50, read-out: SMYD3 Biochem IC50*): 0.184 µM
IC50 (SMYD3 [2]; IC50 values are an average of n = 1 to n = 50, read-out: SMYD3 Cell IC50*): 0.935 µM

SMILES: COCCN(C)c1ccc(S(=O)(=O)N2CC[C@H](NC(=O)c3cc(C4CC4)on3)C[C@H]2C)cn1 [compound 504, 5-cyclopropyl-N-((2R,4S)-1-((6-((2-methoxyethyl)(methyl)amino)pyridin-3-yl)sulfonyl)-2-methylpiperidin-4-yl)isoxazole-3-carboxamide]
IC50 (SMYD3 [1]; [3]): > 10 µM
IC50 (SMYD3 [2]; [4]): > 10 µM

SMILES: C[C@H]1C[C@@H](NC(=O)c2cc(C3CC3)on2)CCN1S(=O)(=O)N1CC2CC(C1)N2 [compound 588, N-((2S,4S)-1-((3,6-diazabicyclo[3.1.1]heptan-3-yl)sulfonyl)-2-methylpiperidin-4-yl)-5-cyclopropylisoxazole-3-carboxamide]
IC50 (SMYD3 [1]; [7]): 0.0108 µM
IC50 (SMYD3 [2]; [8]): 0.151 µM

IC50 (SMYD3 [1]; [9]): 0.0634 µM
IC50 (SMYD3 [2]; [10]): 0.634 µM
SMILES: C[C@@H]1CN(C(=O)c2ccc(C(C)(C)N)cc2)[C@H](C)C[C@@H]1NC(=O)c1cc(C2CC2)on1 [compound 657, N-((2R,4S,5R)-1-(4-(2-aminopropan-2-yl)benzoyl)-2,5-dimethylpiperidin-4-yl)-5-cyclopropylisoxazole-3-carboxamide]

SMILES: C[C@@H](N)c1ccc(S(=O)(=O)N2[C@@H]3CC[C@H]2C[C@@H](NC(=O)c2cc(C4CC4)on2)C3)cc1 [compound 934, N-((1R,3R,5S)-8-((4-((R)-1-aminoethyl)phenyl)sulfonyl)-8-azabicyclo[3.2.1]octan-3-yl)-5-cyclopropylisoxazole-3-carboxamide]
IC50 (SMYD3 [1]; read-out: SMYD3 Biochem IC50*): 0.0424 µM
IC50 (SMYD3 [2]; read-out: SMYD3 Cell IC50*): 0.494 µM

IC50 (SMYD3 [1]; [5]): 0.0225 µM
IC50 (SMYD3 [2]; [6]): 0.838 µM
SMILES: O=C(N[C@H]1CCN(C(=O)CC2CCNCC2)[C@@H](Cc2ccccc2)C1)c1cc(C2CC2)on1 [Cpd. No. 348, N-((2S,4S)-2-benzyl-1-(2-(piperidin-4-yl)acetyl)piperidin-4-yl)-5-cyclopropylisoxazole-3-carboxamide hydrochloride]

IC50 (SMYD3 [1]; [7]): 0.0207 µM
IC50 (SMYD3 [2]; [8]): 0.217 µM
SMILES: C[C@H]1C[C@@H](NC(=O)c2cc(C3CC3)on2)CCN1S(=O)(=O)CCCNCC1CCCCC1 [compound 612, N-((2S,4S)-1-((3-((cyclohexylmethyl)amino)propyl)sulfonyl)-2-methylpiperidin-4-yl)-5-cyclopropylisoxazole-3-carboxamide]

IC50 (SMYD3 [1]; [9]): 0.055 µM
IC50 (SMYD3 [2]; [10]): 0.328 µM
SMILES: C[C@H]1CN(S(=O)(=O)N(C)C2CCNCC2)CC[C@H]1NC(=O)c1cc(C2CC2)on1 [compound 653, 5-cyclopropyl-N-((3S,4R)-3-methyl-1-(N-methyl-N-(piperidin-4-yl)sulfamoyl)piperidin-4-yl)isoxazole-3-carboxamide]

SMILES: O=C(NC1CC2CCCC(C1)N2S(=O)(=O)CCN1CCOCC1)c1cc(C2CC2)on1 (centres unmarked) [compound 443, 5-cyclopropyl-N-(9-((2-morpholinoethyl)sulfonyl)-9-azabicyclo[3.3.1]nonan-3-yl)isoxazole-3-carboxamide]
IC50 (SMYD3 [1]; [5]): > 10 µM
IC50 (SMYD3 [2]; [6]): > 10 µM

SMILES: CNCCNCCCS(=O)(=O)N1[C@@H]2CC[C@H]1C[C@@H](NC(=O)c1cc(C3CC3)on1)C2 [compound 563, 5-cyclopropyl-N-((1R,3r,5S)-8-((3-((2-(methylamino)ethyl)amino)propyl)sulfonyl)-8-azabicyclo[3.2.1]octan-3-yl)isoxazole-3-carboxamide]
IC50 (SMYD3 [1]; [7]): 0.0053 µM
IC50 (SMYD3 [2]; [8]): 0.339 µM

SMILES: CN(CCCC(F)(F)F)C1CCN(S(=O)(=O)N2[C@@H]3CC[C@H]2C[C@@H](NC(=O)c2cc(C4CC4)on2)C3)CC1 [compound 838, 5-cyclopropyl-N-((1R,3r,5S)-8-((4-(methyl(4,4,4-trifluorobutyl)amino)piperidin-1-yl)sulfonyl)-8-azabicyclo[3.2.1]octan-3-yl)isoxazole-3-carboxamide]
IC50 (SMYD3 [1]; read-out: SMYD3 Biochem IC50*): 0.0049 µM
IC50 (SMYD3 [2]; read-out: SMYD3 Cell IC50*): 0.0524 µM

SMILES: CNCCN(C)CCCS(=O)(=O)N1[C@@H]2CC[C@H]1C[C@@H](NC(=O)c1cc(C3CC3)on1)C2 [compound 622, 5-cyclopropyl-N-((1R,3r,5S)-8-((3-(methyl(2-(methylamino)ethyl)amino)propyl)sulfonyl)-8-azabicyclo[3.2.1]octan-3-yl)isoxazole-3-carboxamide]
IC50 (SMYD3 [1]; [7]): 0.0234 µM
IC50 (SMYD3 [2]; [8]): 0.464 µM

SMILES: O=C(N[C@H]1C[C@H]2CC[C@@H](C1)N2S(=O)(=O)N1CCC(NCCC(F)(F)F)CC1)c1cc(C2CC2)on1 [compound 918, 5-cyclopropyl-N-((1R,3r,5S)-8-((4-((3,3,3-trifluoropropyl)amino)piperidin-1-yl)sulfonyl)-8-azabicyclo[3.2.1]octan-3-yl)isoxazole-3-carboxamide]
IC50 (SMYD3 [1]; read-out: SMYD3 Biochem IC50*): 0.025 µM
IC50 (SMYD3 [2]; read-out: SMYD3 Cell IC50*): 0.148 µM

IC50 (SMYD3 [1]; read-out: SMYD3 Biochem IC50*): 0.0439 µM
IC50 (SMYD3 [2]; read-out: SMYD3 Cell IC50*): 0.484 µM
SMILES: CC[C@@H]1CNCCN1S(=O)(=O)N1CC[C@H](NC(=O)c2cc(C3CC3)on2)C[C@@H]1C [compound 937, 5-cyclopropyl-N-((2S,4S)-1-(((R)-2-ethylpiperazin-1-yl)sulfonyl)-2-methylpiperidin-4-yl)isoxazole-3-carboxamide]

SMILES: CN1CCC2(CC1)CN(S(=O)(=O)N1[C@@H]3CC[C@H]1C[C@@H](NC(=O)c1cc(C4CC4)on1)C3)C2 [compound 782, 5-cyclopropyl-N-((1R,3r,5S)-8-((7-methyl-2,7-diazaspiro[3.5]nonan-2-yl)sulfonyl)-8-azabicyclo[3.2.1]octan-3-yl)isoxazole-3-carboxamide]
IC50 (SMYD3 [1]; read-out: SMYD3 Biochem IC50*): 0.00123 µM
IC50 (SMYD3 [2]; read-out: SMYD3 Cell IC50*): 0.0301 µM

SMILES: O=C(N[C@H]1C[C@H]2CC[C@@H](C1)N2S(=O)(=O)N1CCC(NCCCN2CCCC2)CC1)c1cc(C2CC2)on1 [compound 868, 5-cyclopropyl-N-((1R,3r,5S)-8-((4-((3-(pyrrolidin-1-yl)propyl)amino)piperidin-1-yl)sulfonyl)-8-azabicyclo[3.2.1]octan-3-yl)isoxazole-3-carboxamide]
IC50 (SMYD3 [1]; read-out: SMYD3 Biochem IC50*): 0.00868 µM
IC50 (SMYD3 [2]; read-out: SMYD3 Cell IC50*): 0.31 µM

SMILES: COCCCNC1CCN(S(=O)(=O)N2[C@@H]3CC[C@H]2C[C@@H](NC(=O)c2cc(C4CC4)on2)C3)CC1 [compound 869, 5-cyclopropyl-N-((1R,3r,5S)-8-((4-((3-methoxypropyl)amino)piperidin-1-yl)sulfonyl)-8-azabicyclo[3.2.1]octan-3-yl)isoxazole-3-carboxamide]
IC50 (SMYD3 [1]; read-out: SMYD3 Biochem IC50*): 0.00905 µM
IC50 (SMYD3 [2]; read-out: SMYD3 Cell IC50*): 0.117 µM

SMILES: CC1CN(S(=O)(=O)N2[C@@H]3CC[C@H]2C[C@@H](NC(=O)c2cc(C4CC4)on2)C3)CCN1 (stereo partly drawn) [compound 887, 5-cyclopropyl-N-((1R,3r,5S)-8-((3-methylpiperazin-1-yl)sulfonyl)-8-azabicyclo[3.2.1]octan-3-yl)isoxazole-3-carboxamide]
IC50 (SMYD3 [1]; read-out: SMYD3 Biochem IC50*): 0.0122 µM
IC50 (SMYD3 [2]; read-out: SMYD3 Cell IC50*): 0.0878 µM

SMILES: CC1(N)CCN(S(=O)(=O)N2[C@@H]3CC[C@H]2C[C@@H](NC(=O)c2cc(C4CC4)on2)C3)CC1 [compound 796, N-((1R,3r,5S)-8-((4-amino-4-methylpiperidin-1-yl)sulfonyl)-8-azabicyclo[3.2.1]octan-3-yl)-5-cyclopropylisoxazole-3-carboxamide]
IC50 (SMYD3 [1]; read-out: SMYD3 Biochem IC50*): 0.0019 µM
IC50 (SMYD3 [2]; read-out: SMYD3 Cell IC50*): 0.0407 µM
